Nine compounds from PubChem BioAssay (NCI) can be followed below.

What is called TGI is the concentration giving total growth inhibition. Lower therefore signals greater sensitivity of the cells. As a reminder, the GI50 is the concentration that inhibits growth by half.

Values joined by “and” are separate entries in the source; they are usually repeats but may differ in a detail not shown here. Identical values can stand only once.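 Where inhibition never reached the appropriate level, the endpoint shown equals the highest concentration tested. Otherwise, values were interpolated linearly from a five-concentration, 48-hour dose response in 96-well plates. At the GI50, growth is halved. Definition used: TGI = concentration required for complete inhibition of growth.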

Some test systems named below: SF-539 CNS; COLO 205 colon; NCI-H460 lung; NCI-H23 lung; A549 NSCLC; CAKI-1 renal; HL-60(TB) leukemia; BT-549 breast; ACHN renal; HOP-92 NSCLC.
Common to all, as to experiment: DTP human tumour cell line panel, 48 h

`COc1c(C)c(OCC=C(C)C)cc(CO)c1CO`: the TGI in the assay with SF-539 CNS, in the assay on COLO 205 colon, in the assay on NCI-H460 lung, in the assay with NCI-H23 lung, with A549 NSCLC and in the assay on CAKI-1 renal was over 100 µM in each case. Also, the TGI in the assay on HL-60(TB) leukemia, with BT-549 breast, in the assay with ACHN renal and in the assay on HOP-92 NSCLC was over 100 µM each time.

Regarding `CC(C)=CCC1=C(O)c2ccccc2C(=O)C1=O`, the TGI is over 100 µM in the assay on SF-539 CNS; 37.5 µM and > 100 µM in the assay with COLO 205 colon; over 100 µM with NCI-H460 lung; > 100 µM and 69.7 µM in the assay on NCI-H23 lung; over 100 µM with A549 NSCLC; over 100 µM in the assay on CAKI-1 renal. For the same compound, the TGI with HL-60(TB) leukemia, with BT-549 breast, in the assay with ACHN renal and in the assay with HOP-92 NSCLC was over 100 µM in each case. The GI50 in the assay on COLO 205 colon is 18.4 µM and 52.3 µM and 28.8 µM; with NCI-H23 lung, > 100 µM and 23.5 µM and 33.6 µM; with A549 NSCLC it was > 100 µM and 17.3 µM and 16.6 µM.

With `CNc1cc2oc(=O)cc(C)c2cc1C`, the TGI in the assay on SF-539 CNS, with COLO 205 colon, with NCI-H460 lung, in the assay with NCI-H23 lung, with A549 NSCLC and with CAKI-1 renal was over 100 µM throughout. Also, the total growth inhibition concentration (TGI) with HL-60(TB) leukemia, in the assay on BT-549 breast, with ACHN renal and in the assay on HOP-92 NSCLC was over 100 µM in each case.

For `O=C(Nc1nc(-c2c[nH]c3ccccc23)cs1)c1n[nH]c(=O)c2ccccc12`, the GI50 is 1.68 µM in the assay with SF-539 CNS; 2.47 µM in the assay on COLO 205 colon; 0.451 µM in the assay on NCI-H460 lung; 24.2 µM with NCI-H23 lung; 1.57 µM in the assay on A549 NSCLC; 2.44 µM with CAKI-1 renal. Also, the GI50 in the assay on HL-60(TB) leukemia was 0.777 µM; in the assay on BT-549 breast it was 3.89 µM; with ACHN renal it was 8.98 µM; in the assay with HOP-92 NSCLC it was over 30.6 µM. The concentration for total growth inhibition (TGI) in the assay with SF-539 CNS is over 57.6 µM; in the assay on COLO 205 colon, over 60.1 µM; with NCI-H460 lung it was over 36.8 µM; in the assay on NCI-H23 lung, over 100 µM; in the assay with A549 NSCLC it was 83.6 µM; with CAKI-1 renal it was over 62.3 µM. The TGI with HL-60(TB) leukemia is over 100 µM; in the assay on BT-549 breast, over 81.2 µM; in the assay on ACHN renal it was over 69.1 µM; in the assay with HOP-92 NSCLC it was over 100 µM.

On to `CCCCNCCCNCCCNC(=O)c1csc(-c2csc(CCNC(=O)C(NC(=O)C(C)C(O)C(C)NC(=O)C(NC(=O)c3nc(C(CC(N)=O)NCC(N)C(N)=O)nc(N)c3C)C(OC3OC(CO)C(O)C(O)C3OC3OC(CO)C(O)C(OC(N)=O)C3O)c3cnc[nH]3)C(C)O)n2)n1` (centres undefined), for which the 50% growth inhibitory concentration (GI50) with SF-539 CNS was 0.0449 µM; in the assay with COLO 205 colon, 26.6 µM; in the assay on NCI-H460 lung, 0.0396 µM; in the assay with NCI-H23 lung it was 0.269 µM; with A549 NSCLC, 1.13 µM; in the assay with HL-60(TB) leukemia, 3.4 µM. Moreover, in the assay with ACHN renal, the concentration for 50% growth inhibition (GI50) is 0.0491 µM. The TGI was 0.357 µM and 0.235 µM in the assay with SF-539 CNS; 50 µM and > 89.1 µM with COLO 205 colon; 5.22 µM and 13 µM in the assay on NCI-H460 lung; 7.42 µM and 2.2 µM in the assay on NCI-H23 lung; 10.3 µM and 22.9 µM in the assay on A549 NSCLC; 50 µM and 17 µM in the assay with CAKI-1 renal. Also, the total growth inhibition concentration (TGI) with HL-60(TB) leukemia is 50 µM and > 100 µM; in the assay on BT-549 breast, over 50 µM; with HOP-92 NSCLC, 1.79 µM.

As to `Nc1c(C(=O)Nc2ccccn2)sc2nc3c(cc12)C(=O)CCC3`, the GI50 was 1.17 µM with SF-539 CNS; 0.908 µM with COLO 205 colon; 0.596 µM in the assay on NCI-H460 lung; 3.29 µM in the assay with NCI-H23 lung; 1.78 µM in the assay with A549 NSCLC; 0.697 µM in the assay with CAKI-1 renal. The GI50 is 0.689 µM with HL-60(TB) leukemia, 0.332 µM with BT-549 breast, 6.06 µM with ACHN renal and 27.7 µM with HOP-92 NSCLC. In addition, the TGI in the assay on SF-539 CNS is 5.65 µM; in the assay on COLO 205 colon, 26 µM; in the assay with NCI-H460 lung, over 100 µM; in the assay with NCI-H23 lung, over 100 µM; with A549 NSCLC, over 100 µM; in the assay on CAKI-1 renal, over 100 µM. Also, the TGI was 5.27 µM in the assay on HL-60(TB) leukemia, over 100 µM in the assay on BT-549 breast, over 100 µM with ACHN renal and over 100 µM with HOP-92 NSCLC.

As for `NC(=S)N/N=C/c1ncccc1O`, the concentration for 50% growth inhibition (GI50) in the assay with SF-539 CNS is 0.567 µM and 0.242 µM; in the assay with COLO 205 colon it was 3.48 µM; in the assay with NCI-H460 lung, 3.17 µM; in the assay on NCI-H23 lung it was 1.38 µM; in the assay with A549 NSCLC it was 3.39 µM; in the assay with CAKI-1 renal, 2.59 µM. In addition, the GI50 was 1.27 µM and 0.477 µM in the assay on HL-60(TB) leukemia; 1.58 µM in the assay on BT-549 breast; 0.202 µM in the assay on ACHN renal; 6.55 µM in the assay on HOP-92 NSCLC. Moreover, the total growth inhibition concentration (TGI) with SF-539 CNS was 2.69 µM and 1.26 µM; with COLO 205 colon, over 431 µM; in the assay on NCI-H460 lung, 48.5 µM and 25.2 µM; in the assay with NCI-H23 lung, 33.4 µM and 29.7 µM; with A549 NSCLC, > 59.4 µM and 31.3 µM; with CAKI-1 renal, > 56.7 µM and 63.9 µM. Besides, the TGI was 3.6 µM and 3.59 µM in the assay on HL-60(TB) leukemia; over 1000 µM with BT-549 breast; 8.54 µM and 1.38 µM with ACHN renal; 31.2 µM and 90.7 µM in the assay on HOP-92 NSCLC.

In the case of `COc1ccc(/C=C\c2cc(OC)c(OC)c(OC)c2)cc1OCC(=O)O`, the total growth inhibition concentration (TGI) in the assay on SF-539 CNS was 11.5 µM; in the assay with COLO 205 colon, over 100 µM; with NCI-H460 lung, over 55.3 µM; in the assay on NCI-H23 lung it was 12.5 µM; in the assay on A549 NSCLC it was over 100 µM; with CAKI-1 renal, over 100 µM. Moreover, the TGI was 23.8 µM in the assay on HL-60(TB) leukemia, over 100 µM with BT-549 breast, over 100 µM in the assay with ACHN renal and 55.7 µM in the assay on HOP-92 NSCLC.

Take `O=C(Nc1ncc(Cc2cccc(C(F)(F)F)c2)s1)c1ccc2c(c1)OCCO2`: the GI50 in the assay with SF-539 CNS is 0.251 µM; with COLO 205 colon, 0.282 µM; in the assay on NCI-H460 lung, 0.349 µM; with NCI-H23 lung it was 0.474 µM; in the assay on A549 NSCLC it was 0.451 µM; in the assay on CAKI-1 renal, 0.141 µM. Also, the GI50 in the assay with HL-60(TB) leukemia was 0.34 µM; in the assay on BT-549 breast it was 0.449 µM; in the assay with ACHN renal it was 0.58 µM; in the assay with HOP-92 NSCLC, 2.97 µM. Further, the concentration for total growth inhibition (TGI) was 0.916 µM in the assay on SF-539 CNS; 1.54 µM with COLO 205 colon; over 38.2 µM in the assay with NCI-H460 lung; over 57.6 µM in the assay on NCI-H23 lung; over 100 µM in the assay on A549 NSCLC; over 45.9 µM in the assay on CAKI-1 renal. Also, the total growth inhibition concentration (TGI) in the assay on HL-60(TB) leukemia is over 100 µM; with BT-549 breast, over 100 µM; with ACHN renal, over 100 µM; in the assay with HOP-92 NSCLC, over 72.2 µM.
